From US20170107207A1, “AMINOPYRAZOLONE DERIVATIVE” (DAIICHI SANKYO COMPANY, LIMITED, priority 2014, published 2017)

Experiments:
Hep G2 = test: Cell growth inhibition test, Hep G2; assay type: cell-based; details: Homo sapiens, HepG2, 72 h; Hep G2, Liver cancer, 3 days, CellTiter-Glo
Method: (§1) A cell growth inhibition test was carried out by treating a cultured cancer cell line with a test compound for a given period and then counting the number of viable cells by CellTiter-Glo Luminescent Cell Viability Assay (manufactured by Promega Corp.).
(§2) The following cells were inoculated to a 384-well plate containing the compound prepared in advance at predetermined concentrations. […]
(§3) The cells thus inoculated were cultured at 37° C. for 3 days under 5% CO2. […] Then, luminescence intensity was measured using a plate reader.
(§4) The number of viable cells and luminescence intensity have been confirmed to correlate with each other. Therefore, the rate of cell growth was calculated according to the following expression: Rate of cell growth (T/C %) of a test compound-supplemented well=100×[(B−C)/(A−C)] wherein A represents the luminescence intensity (final culture date) of a test compound-free well; B represents the luminescence intensity (final culture date) of a test compound-containing well; and C represents the luminescence intensity (day of cell inoculation) of a well at the start of contact of the cells with the test compound.
(§5) T/C % at the concentration of each of the serially diluted test compounds was determined. […]

T24 = test: Cell growth inhibition test, T24; assay type: cell-based; details: Homo sapiens, T-24, 72 h; T24, Bladder cancer, 3 days, CellTiter-Glo
Method: as §1, §2, §3, §4, §5

PC-3 = test: Cell growth inhibition test, PC-3; assay type: cell-based; details: Homo sapiens, 72 h; PC-3, Prostate cancer, 3 days, CellTiter-Glo
Method: as §1, §2, §3, §4, §5

TIP48/TIP49 complex = target: T1, TIP48/TIP49 complex (Homo sapiens, UniProt Q9Y230+Q9Y265); test: ATPase assay of TIP48/TIP49 complex (ADP-Glo); assay type: biochemical; details: concentration at which the ATPase activity was inhibited by 50%
T1 construct: made in house; host or cells: E. coli
Method in brief: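 Compound was tested over 10 four-fold concentrations, 200 μM down to 0.0007 μM at 2% DMSO, against E. coli-derived human rTIP48/rTIP49 for 1.5 h at room temperature, pH 7.5 with ATP. ATP hydrolysis was read as ADP-Glo luminescence, normalised to complex-only and no-complex wells, then fitted to dose-response curves.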

T1 sequence (Q9Y230 whole entry): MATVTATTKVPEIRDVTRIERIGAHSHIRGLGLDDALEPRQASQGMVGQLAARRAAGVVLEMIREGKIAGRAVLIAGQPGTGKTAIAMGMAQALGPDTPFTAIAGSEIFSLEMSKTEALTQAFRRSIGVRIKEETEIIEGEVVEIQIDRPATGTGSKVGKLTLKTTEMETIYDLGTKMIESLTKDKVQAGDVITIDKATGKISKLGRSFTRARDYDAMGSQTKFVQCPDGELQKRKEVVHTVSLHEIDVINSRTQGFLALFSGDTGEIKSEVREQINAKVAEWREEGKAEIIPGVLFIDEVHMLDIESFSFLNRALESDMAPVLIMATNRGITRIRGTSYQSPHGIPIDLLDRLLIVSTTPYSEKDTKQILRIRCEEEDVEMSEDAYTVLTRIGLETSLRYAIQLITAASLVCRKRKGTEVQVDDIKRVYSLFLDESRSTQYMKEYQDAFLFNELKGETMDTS
T1 sequence (Q9Y265 whole entry): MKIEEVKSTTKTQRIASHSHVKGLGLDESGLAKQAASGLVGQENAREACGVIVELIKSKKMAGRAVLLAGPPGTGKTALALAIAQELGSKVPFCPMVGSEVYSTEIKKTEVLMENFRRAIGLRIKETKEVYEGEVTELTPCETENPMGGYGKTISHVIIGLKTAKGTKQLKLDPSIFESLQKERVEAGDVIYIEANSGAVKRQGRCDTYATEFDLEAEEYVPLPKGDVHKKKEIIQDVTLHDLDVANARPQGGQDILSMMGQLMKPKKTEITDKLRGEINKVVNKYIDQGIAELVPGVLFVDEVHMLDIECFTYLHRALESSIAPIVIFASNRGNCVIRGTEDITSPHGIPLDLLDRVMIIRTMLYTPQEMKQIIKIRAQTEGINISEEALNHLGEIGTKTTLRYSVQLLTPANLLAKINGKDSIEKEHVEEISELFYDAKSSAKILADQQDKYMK

Structure (SMILES) | GI50 (Hep G2) [µM] | GI50 (T24) [µM] | GI50 (PC-3) [µM] | IC50 (TIP48/TIP49 complex) [µM]
CCOc1ncc(Cl)cc1C(=O)NCC(C)(C)CC(=O)Nc1c([C@H](C)CN(C)C)n(C)n(-c2ccccc2)c1=O [Example 73, 5-Chloro-N-[4-({5-[(1R)-2-(dimethylamino)-1-methylethyl]-1-methyl-3-oxo-2-phenyl-2,3-dihydro-1H-pyrazol-4-yl}amino)-2,2-dimethyl-4-oxobutyl]-2-ethoxypyridine-3-carboxamide] | 1.1 | 0.85 | 1.5 | 0.048
CCOc1cc(F)c(Cl)cc1C(=O)NCC(C)(C)CC(=O)Nc1c(COC)n(C)n(-c2ccccc2)c1=O [Example 113, 5-Chloro-2-ethoxy-4-fluoro-N-(4-{[5-(methoxymethyl)-1-methyl-3-oxo-2-phenyl-2,3-dihydro-1H-pyrazol-4-yl]amino}-2,2-dimethyl-4-oxobutyl)benzamide] | 0.38 | 0.49 | 1.4 | 0.039
CCOc1ccc(Cl)cc1C(=O)NCC(C)(C)CC(=O)Nc1c([C@H](C)CN(C)C)n(C)n(-c2ccccc2)c1=O [Example 68, 5-Chloro-N-[4-({5-[(1R)-2-(dimethylamino)-1-methylethyl]-1-methyl-3-oxo-2-phenyl-2,3-dihydro-1H-pyrazol-4-yl}amino)-2,2-dimethyl-4-oxobutyl]-2-ethoxybenzamide] | 0.58 | 0.65 | 1.4 | 0.07
